Source: patent US9795602B2, “Polycyclic-carbamoylpyridone compounds and their pharmaceutical use” (Gilead Sciences, Inc., priority 2014, dated 2017)
Like-named read-outs stand apart in the source and are kept apart here.

Experiments:
Assay type in all cases: cell-based
[1] = tested on: HIV-IIIb; assay: Antiviral assay in MT4 cells
Protocol: 1 mL aliquots of 2×10^6 MT4 cells are pre-infected for 1 and 3 hours respectively at 37° C. with 25 μL (MT4) or of either cell growth medium (mock-infected) or a fresh 1:250 dilution of an HIV-IIIb concentrated ABI stock (0.004 m.o.i. for MT4 cells). Infected and uninfected cells are diluted in cell growth medium and 35 μL of 2000 (for MT4) cells is added to each well of the assay plates.
(§1) Assay plates were then incubated in a 37° C. incubator. After 5 days of incubation, 25 μL of 2× concentrated CellTiter-Glo™ Reagent (catalog # G7573, Promega Biosciences, Inc., Madison, Wis.) was added to each well of the assay plate. Cell lysis was carried out by incubating at room temperature for 2-3 minutes, and then chemiluminescence was read using the Envision reader (PerkinElmer).

[2] = Cytotoxicity (CC50) in MT4 cells, mock-infected; details: human
Protocol: as §1, with “Infected and uninfected cells are diluted in cell growth medium and 35 μL of 2000 (for MT4) cells is added to each well of the assay plates. Assay” for “Assay”

[3] = target: PXR (NR1I2) (Homo sapiens (Human), UniProt O75469); assay: Human PXR activation assay (luciferase reporter, DPX2 cells); details: human
Protocol: Luciferase Reporter Gene Assay.
A stably transformed tumor cell line (DPX2) was plated on 96-well microtiter plates. […]. The number of viable cells was determined and the reporter gene activity was assessed. […]

[4] = Human immunodeficiency virus 1, IIIB, MT4, 120 h, MT4 cells, HIV-IIIb, 5 days, read-out: EC50
[5] = 15 uM, DPX2 cells, % Emax relative to rifampicin, adjusted for DMSO background, read-out: PXR % inh at 15 uM (adjusted)

Chain of PXR (NR1I2) (O75469 whole entry): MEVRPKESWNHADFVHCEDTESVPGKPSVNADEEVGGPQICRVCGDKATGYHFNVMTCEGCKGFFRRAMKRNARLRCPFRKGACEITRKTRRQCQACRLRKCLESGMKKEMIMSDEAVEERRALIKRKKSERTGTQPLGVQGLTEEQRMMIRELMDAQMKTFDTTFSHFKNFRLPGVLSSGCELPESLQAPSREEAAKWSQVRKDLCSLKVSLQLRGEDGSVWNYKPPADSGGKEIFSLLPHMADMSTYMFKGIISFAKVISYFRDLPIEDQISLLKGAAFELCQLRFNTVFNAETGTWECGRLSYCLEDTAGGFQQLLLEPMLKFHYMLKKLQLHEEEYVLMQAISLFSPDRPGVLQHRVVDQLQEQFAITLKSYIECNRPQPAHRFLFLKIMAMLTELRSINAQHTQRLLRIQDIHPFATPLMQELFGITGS

SMILES | EC50 [1, 4] | CC50 at 5 days ([2]; mock-infected (uninfected)) | inhibition at 24 h, 15 µM [3, 5] | EC50 ([1]; Human immunodeficiency virus 1, 120 h, MT4 cells, HIV-IIIb, 5 days, read-out: EC50) | CC50 at 5 days ([2]; mock-infected) | inhibition at 24 h, 15 µM [3] | EC50 ([1]; Human immunodeficiency virus 1, IIIB, MT4, 120 h) | inhibition at 15 µM [3]
CN1C(=O)c2c(O)c(=O)c(C(=O)NCc3ccc(F)c(Cl)c3F)cn2[C@H]2CCOC[C@H]21 [Compound 49] | 0.00332 µM | 12 µM | 1% | – | – | – | – | –
CN1C(=O)c2c(O)c(=O)c(C(=O)NCc3c(F)cc(F)cc3F)cn2[C@H]2C[C@@H]3C[C@@H]3[C@H]21 [Compound 51, (6aR,6bS,7aS,8aS)-4-hydroxy-6-methyl-3,5-dioxo-N-(2,4,6-trifluorobenzyl)-5,6,6a,6b,7,7a,8,8a-octahydro-3H-cyclopropa[4,5]cyclopenta[1,2-e]pyrido[1,2-a]pyrazine-2-carboxamide] | – | – | 33% | 0.00528 µM | 6.71 µM | – | – | –
CCN1C(=O)c2c(O)c(=O)c(C(=O)NCc3cccc(F)c3F)cn2[C@H]2CCOC[C@H]21 [Compound 18] | 0.00333 µM | 26.9 µM | 2% | – | – | – | – | –
CCN1C(=O)c2c(O)c(=O)c(C(=O)NCc3cc(Cl)c(F)cc3F)cn2[C@H]2CCOC[C@H]21 [Compound 15] | 0.00792 µM | 14.9 µM | 6% | – | – | – | – | –
CCN1C(=O)c2c(O)c(=O)c(C(=O)NCc3ccc(F)c(F)c3F)cn2[C@H]2CCOC[C@H]21 [Compound 19] | 0.00428 µM | 27.8 µM | 11% | – | – | – | – | –
CN1C(=O)c2c(O)c(=O)c(C(=O)NCc3c(F)cc(F)cc3F)cn2[C@H]2CCOC[C@H]21 [Compound 48] | 0.0043 µM | 32.3 µM | 1% | – | – | – | – | –
O=C(NCc1ccc(F)c(Cl)c1F)c1cn2c(c(O)c1=O)C(=O)N(CC(F)F)[C@@H]1COCC[C@@H]12 [Compound 36] | 0.00158 µM | 19.7 µM | 5% | – | – | – | – | –
CN1C(=O)c2c(O)c(=O)c(C(=O)NCc3c(F)cc(F)cc3F)cn2[C@@H]2CCO[C@@H]21 [Compound 23] | 0.00377 µM | 18 µM | 8% | – | – | – | – | –
O=C(NCc1c(F)cc(F)cc1F)c1cn2c(c(O)c1=O)C(=O)N[C@H]1CCCC[C@@H]12 [Compound 61] | 0.0063 µM | 31.4 µM | – | – | – | 0% | – | –
CN1C(=O)c2c(O)c(=O)c(C(=O)NCc3c(F)cc(F)cc3F)cn2[C@@H]2CCOC[C@@H]21 [Compound 30] | 0.00325 µM | 10.4 µM | 9% | – | – | – | – | –
CN1C(=O)c2c(O)c(=O)c(C(=O)NCc3c(F)cc(F)cc3F)cn2[C@H]2COCC[C@]21C(F)F [Compound 9] | – | 11.3 µM | – | – | – | – | 0.0014 µM | 27%
CCCN1C(=O)c2c(O)c(=O)c(C(=O)NCc3c(F)cc(F)cc3F)cn2[C@@H]2CCO[C@@H]21 (racemic) [Compound 24] | 0.00729 µM | – | 29% | – | 37.5 µM | – | – | –
O=C(NCc1c(F)cc(F)cc1F)c1cn2c(c(O)c1=O)C(=O)N[C@@H]1CCCC[C@H]12 [Compound 62] | 0.0073 µM | 24.2 µM | – | – | – | 0% | – | –
CN1C(=O)c2c(O)c(=O)c(C(=O)NCc3c(F)cc(F)cc3F)cn2[C@H]2CCCC[C@@H]21 [Compound 2] | 0.0039 µM | 11.2 µM | – | – | – | 46% | – | –
CCN1C(=O)c2c(O)c(=O)c(C(=O)NCc3c(F)cc(F)cc3F)cn2[C@@H]2CCO[C@@H]21 [Compound 26a] | 0.00527 µM | 24.3 µM | 15% | – | – | – | – | –
CCN1C(=O)c2c(O)c(=O)c(C(=O)NCc3ccc(F)c(Cl)c3F)cn2[C@H]2COCC[C@H]21 [Compound 57, (4aR,11aR)-N-(3-chloro-2,4-difluorobenzyl)-5-ethyl-7-hydroxy-6,8-dioxo-1,3,4,4a,5,6,8,11a-octahydropyrano[4,3-e]pyrido[1,2-a]pyrazine-9-carboxamide] | 0.00229 µM | – | 3% | – | 6.45 µM | – | – | –
O=C(NCc1c(F)cc(F)cc1F)c1cn2c(c(O)c1=O)C(=O)N(CC(F)F)[C@@H]1COCC[C@@H]12 [Compound 34] | 0.00223 µM | 32.3 µM | 3% | – | – | – | – | –
C[C@@H]1OCC[C@H]2[C@@H]1N(C)C(=O)c1c(O)c(=O)c(C(=O)NCc3c(F)cc(F)cc3F)cn12 [Compound 54, (4S,4aS,11aS)-7-hydroxy-4,5-dimethyl-6,8-dioxo-N-(2,4,6-trifluorobenzyl)-1,2,4,4a,5,6,8,11a-octahydropyrano[3,4-e]pyrido[1,2-a]pyrazine-9-carboxamide] | 0.00292 µM | – | 8% | – | 23.9 µM | – | – | –
CN1C(=O)c2c(O)c(=O)c(C(=O)NCc3c(F)cc(F)cc3F)cn2[C@@H]2COC[C@@H]21 [Compound 43] | 0.00288 µM | 11.3 µM | 13% | – | – | – | – | –
CN1C(=O)c2c(O)c(=O)c(C(=O)NCc3c(F)cc(F)cc3F)cn2[C@@H]2COC[C@H]21 [Compound 46] | 0.00293 µM | 28.2 µM | 8% | – | – | – | – | –
CCN1C(=O)c2c(O)c(=O)c(C(=O)NCc3ccc(F)c(Cl)c3F)cn2[C@@H]2CCO[C@@H]21 [Compound 25a] | 0.00458 µM | 25.9 µM | 20% | – | – | – | – | –
CN1C(=O)c2c(O)c(=O)c(C(=O)NCc3c(F)cc(F)cc3F)cn2[C@@H]2CCCC[C@H]21 [Compound 1] | 0.00643 µM | 27.3 µM | – | – | – | 32% | – | –
CCN1C(=O)c2c(O)c(=O)c(C(=O)NCc3c(F)cc(F)cc3F)cn2[C@H]2CCC3(C[C@H]21)OCCO3 [Compound 40b] | 0.00131 µM | 23.1 µM | – | – | – | 22% | – | –
